Source: publication PMC12630348, “Evidence of an activity-enhancing conformational shift in Arabidopsis thaliana plant cysteine oxidase 4 induced by binding of substrate or substrate-mimics” (The Journal of Biological Chemistry, 2025)

Experiments:
recombinant AtPCO4 [1] = target: T1, recombinant AtPCO4 (Arabidopsis thaliana, UniProt Q9SJI9); assay: Substrate only assay: anaerobic preincubation of AtPCO4 with RAP2.12_2—17; format: biochemical
T1 construct: His tag followed by thrombin site (N); made in house; host or cells: E. coli BL21(DE3)
Description: The assay plate was immediately removed to aerobic conditions, initiating the reaction. Samples were taken at 0 s, 2 min, 5 min, 10 min, 15 min, and 20 min and quenched in 5% (v/v) formic acid.
(§1) Spectra were assessed manually in MassHunter Qualitative Analysis B.07.00 software (Agilent) to ensure the correct ion was chosen for peptide oxidation quantification. RapidFire Integrator.exe was used to integrate areas of product and substrate ions (ii) an Acquity Ultra-high performance liquid chromatography system (Waters) coupled to a Xevo G2-XS Q-ToF mass spectrometer (Waters) operated in positive electrospray mode. Instrument parameters, data acquisition and data processing were controlled by MassLynx V4.1 software (Waters). Source parameters were adjusted to maximize sensitivity and minimize fragmentation. […] TOF mass scan range 50.00—2500.00 Da. Spectra were assessed manually in MassLynx V4.1 software (Waters) to ensure the correct ion was chosen for peptide oxidation quantification. MassLynx V4.1 software (Waters) was used to integrate areas of product and substrate ions.
(§2) Integration values obtained by MS were subsequently used to quantify reaction turnover (μmol of substrate oxidized per mg of enzyme), and graphs were generated using Prism 10 (GraphPad).

recombinant AtPCO4 [2] = target: T1, recombinant AtPCO4; assay: AtPCO4 activity toward RAP2.12_2—17 after 6 min aerobic preincubation of enzyme with peptidomimetic or control peptide (time course, LC-MS); format: biochemical; details: 200 μM peptide, 6 min aerobic preincubation with 0.1 μM AtPCO4; 20 μM RAP2.12_2—17; 25 °C
Description: (§3) Recombinant AtPCO4 was expressed using BL21(DE3) Escherichia coli cells containing the plasmid pET-28a(+)-His-THROMBIN-AtPCO4, and purified using Ni^2+-affinity and size exclusion chromatography as described in ([59]). WT AtPCO4 along with AtPCO4 Cys190Ala and AtPCO4 ADO loop variants were purified using this method. WT AtPCO4 reactivity toward the peptidomimetics was assessed by incubating (0.1 μM) recombinant enzyme with (200 μM) peptidomimetic in assay buffer (assay buffer: 50 mM Bis-tris propane, 40 mM NaCl, pH 8) supplemented with 20 μM FeSO4, 1 mM ascorbate, 5 mM TCEP, at 25 °C for 20 min prior to quenching in 5% (v/v) formic acid.
(§4) Reaction samples taken at 0 s, 30 s, 60 s, 90 s, 2 min, 5 min, 10 min, 15 min, and 20 min intervals were quenched in 5% (v/v) formic acid.
as §1, §2

recombinant AtPCO4 [3] = target: T1, recombinant AtPCO4; assay: AtPCO4 activity toward RAP2.12_2—17 with peptidomimetic, without peptidomimetic-AtPCO4 preincubation; format: biochemical; details: 200 μM peptidomimetic, 0.1 μM AtPCO4, 20 μM RAP2.12_2—17, 25 °C
Description: To test the significance of the peptidomimetic-AtPCO4 preincubation step, the method above was modified so that either 0 or 400 μM peptidomimetic was instead in mixture (ii) (Fig. 9B). Mixtures were again incubated separately at 25 °C for 6 min before being combined in equal volumes, initiating the reaction. Samples were taken and quenched in 5% (v/v) formic acid.
as §1, §2

AtPCO4 Cys190Ala variant = assay: Cys190Ala AtPCO4 variant activity toward RAP2.12_2—17 after preincubation with peptidomimetic; format: biochemical, Arabidopsis thaliana
Description: as §3, §4
Figure S15 Investigating the potential formation of a Cys190-Tyr192 activity-enhancing crosslink. […] Standard conditions: 5 mM TCEP, 20 μM FeSO4, 1 mM ascorbate, 25 °C. […] Error bars display S.D (n=3).

recombinant AtPCO4 [4] = target: T1, recombinant AtPCO4; assay: AtPCO4 activity toward RAP2.12_2—15 or RAP2.12_2—17 in the presence and absence of peptidomimetic 10 (Fig. S16); format: biochemical; details: 14-mer RAP2.12 substrate, slope of turnover against time (minutes)
Description: as §4
Standard conditions: 5 mM TCEP, 20 μM FeSO4, 1 mM ascorbate, 25 °C. Turnover calculated as μmol RAP2.122—15/17 oxidised per […] of AtPCO4 (data shown is not normalised). Error bars display S.D (n=3).

Row | x (slope between 0-5 min), Peptidomimetic rxn / CP rxn (recombinant AtPCO4 [2]) | x (slope between 0-5 min), Peptidomimetic rxn, no preincubation (recombinant AtPCO4 [3]) | Substance | also measured
1 |  |  | RAP2.12_2—17: 16-mer N-terminal L-Cys substrate peptide of AtPCO4 representing AtRAP2.12, purchased from GL Biochem (CGGAIISDFIPPPRSR; UniProt Q9SSA8 2-17, looked up, fragment) | x (slope between 5-15 min), Preincubation rxn (recombinant AtPCO4 [1]; 20 μM RAP2.12_2—17, 6 min anaerobic preincubation with 0.1 μM WT AtPCO4): 0.099; x (slope between 5-15 min), Preincubation rxn (recombinant AtPCO4 [1]; 50 μM RAP2.12_2—17, 6 min anaerobic preincubation with 0.1 μM WT AtPCO4): 0.275; x (slope between 5-15 min), No Preincubation (recombinant AtPCO4 [1]; 50 μM RAP2.12_2—17, no preincubation with AtPCO4 (anaerobic preparation)): 0.175; x (slope between 5-15 min), Preincubation rxn (recombinant AtPCO4 [1]; 100 μM RAP2.12_2—17, 6 min anaerobic preincubation with 0.1 μM WT AtPCO4): 0.34; x (slope between 5-15 min), No Preincubation (recombinant AtPCO4 [1]; 100 μM RAP2.12_2—17, no preincubation with AtPCO4 (anaerobic preparation)): 0.209; x (slope between 5-15 min), Preincubation rxn (recombinant AtPCO4 [1]; 200 μM RAP2.12_2—17, 6 min anaerobic preincubation with 0.1 μM WT AtPCO4): 0.303; x (slope between 5-15 min), No Preincubation (recombinant AtPCO4 [1]; 200 μM RAP2.12_2—17, no preincubation with AtPCO4 (anaerobic preparation)): 0.15
2 | 0.28 |  | XGGAIISDFIPPPR [Peptidomimetic 1, 14-mer X… mimic of RAP2.12 with N-terminal X = D-Cys] | 
3 |  | 0.05853 | XGGAIISDFIPPPR [Peptidomimetic 2, 14-mer X… with N-terminal X = homocysteine] | 
4 |  | 0.01063 | XGGAIISDFIPPPR [Peptidomimetic 3, 14-mer X… with N-terminal X = penicillamine] | 
5 | 0.31 |  | XGGAIISDFIPPPR [Peptidomimetic 4, 14-mer X… with N-terminal X = S-methyl cysteine (linear thioether)] | 
6 | 0.18 |  | XGGAIISDFIPPPR [Peptidomimetic 6, 14-mer X… with N-terminal X = TM3C (thiomorpholine, cyclized thioether)] | 
7 |  | 0.1162 | XGGAIISDFIPPPR [Peptidomimetic 8, 14-mer X… with N-terminal X = Nα-Me-Cys] | 
8 |  | 0.07282 | XGGAIISDFIPPPR [Peptidomimetic 10, 14-mer X… with N-terminal X = Ser] | x (slope between 0-5 min), Peptidomimetic rxn (recombinant AtPCO4 [4]): 0.6491
9 | 0.29 |  | XGGAIISDFIPPPR [Peptidomimetic 11, 14-mer X… with N-terminal X = hSer] | 
10 |  | 0.03158 | XGGAIISDFIPPPR [Peptidomimetic 12, 14-mer X… with N-terminal X = AlG] | 
11 | 0.34 |  | XGGAIISDFIPPPR [Peptidomimetic 13, 14-mer X… with N-terminal X = Pra] | 

Row | Substance | x (slope between 0-5 min), Peptidomimetic rxn / CP rxn (recombinant AtPCO4 [2]) | x (slope between 0-5 min), Peptidomimetic rxn, no preincubation (recombinant AtPCO4 [3]) | also measured
12 | XGGAIISDFIPPPR [Peptidomimetic 7, 14-mer X… with N-terminal X = 3MePro, Cys-analogue devoid of an amino group] | 0.78 | 0.03853 | increase in the initial rate of RAP2.12_2—17 oxidation between 0—5 min, Cys190Ala AtPCO4 variant (AtPCO4 Cys190Ala variant; 200 μM peptidomimetic, 6 min preincubation with 0.1 μM C190A AtPCO4, 20 μM RAP2.12_2—17, relative to control without peptidomimetic (=1), 25 °C, n = 3): 5.21 fold; Initial rate: x (slope between 0-5 min), Peptidomimetic rxn (AtPCO4 Cys190Ala variant; C190A AtPCO4, slope of turnover time course between 0-5 min): 0.4559
